Data set [1] concerns Abeta oligomer-induced synapse loss in primary hippocampal neurons. Put plainly: Synapse loss assay. In kind it is cell-based, rat. As to the method:
In this assay, Abeta oligomers were brought in contact with mature primary neurons in culture and their binding was determined by immunohistochemistry (anti-Abeta antibody) and quantified by image processing. The amount of Abeta in neuronal dendrites is assessed by counting the number of labeled puncta on the neuritis. […] This labeling is associated with synapses, co-localizing with the post-synaptic scaffold protein PSD-95 (Lacor et al., '04). […] The number of synapses can also be quantified in this assay by immunofluorochemistry. Similar procedures for binding assays can be found in the literature. […] Review.
Primary hippocampal neuronal culture was established as in the membrane trafficking assay above. […] Pretreatment with compounds to be tested lasted for 1 hr and addition of Abeta oligomers or no oligomer (vehicle alone) in a final concentration of 70 ul was followed by incubation for an additional 23 hrs.
The plates were then washed 3× with PBS for 5 min each. The plates were blocked at RT for 1 hr in 5% goat serum and 0.5% Triton X-100 in PBS. […] Primary antibodies were incubated overnight at 4° C. The plates were then washed 3× with PBS for 5 min each. […] Secondary antibodies were incubated at RT for 1 hr. The plates were washed once with PBS. DAPI (4′,6-diamidino-2-phenylindole, Invitrogen) was then applied at 0.03 ug/ul and incubated at RT for 5 min, then washed with PBS.

Another data set concerns the target T1, sigma-2 receptor (Rattus norvegicus, UniProt Q5U3Y7).
T1 sequence (Q5U3Y7 1-176): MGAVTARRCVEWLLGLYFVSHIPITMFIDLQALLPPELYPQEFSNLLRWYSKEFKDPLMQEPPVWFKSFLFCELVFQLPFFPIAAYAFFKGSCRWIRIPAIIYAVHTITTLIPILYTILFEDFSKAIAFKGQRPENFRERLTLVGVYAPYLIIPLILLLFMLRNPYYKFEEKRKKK
Further details: other: known prior art compounds, published studies. To be noted: cited from earlier work.

For data set [2] the following is noted: list wraps over the rows below; first line given; cited from earlier work.
In data set [3] the target is T2, Sigma-1 receptors (UniProt Q60492).
T2 construct: other: known prior art compounds, published studies
The note with it: cited from earlier work.

Data set [4] has as its system Sigma-1 receptors. The note with it: cited from earlier work; for Sigma 1 (Type of Activity): known prior art compounds; for Ki: Table 11E, clinical compounds, first figure of S1/S2, read-out: Sigma Affinity (S1).
In data set [5] the test system is Abeta oligomer-induced membrane trafficking deficits in primary hippocampal neurons. Put plainly: Membrane trafficking/exocytosis (MTT) assay. It is filed as cell-based, rat. To be noted: for EC50: known prior art compounds, read-out: Inhibition Abeta oligomer-induced Membrane Trafficking EC50. As to the method:
The methods used to generate the results were as follows in the Membrane Trafficking/Exocytosis (MTT) assay.
Primary hippocampal neurons from E18 Sprague-Dawley rat embryos were plated at optimized concentrations in 384 well plates in NB media (Invitrogen). Neurons were maintained in cultures for 3 weeks, with twice weekly feeding of NB media with N2 supplement (Invitrogen).
A test compound was added to cells at concentrations ranging from 100 uM to 0.001 nM followed by addition of vehicle or Abeta oligomer preparations (3 μM total Abeta protein concentration), and incubated for 1 to 24 hr at 37° C. in 5% CO2. MTT reagent (3-(4,5-dimethylthizaol-2-yl)-2,5diphenyl tetrazolium bromide) (Roche Molecular Biochemicals) was reconstituted in phosphate buffered saline to 5 mg/mL. 10 μl, of MTT labeling reagent is added to each well and incubated at 37° C. for 1 h, then imaged. Exocytosis was assessed by automated microscopy and image processing to quantify the amount of endocytosed and exocytosed formazan.
Each assay plate was formatted so that compounds are tested with and without Abeta oligomer on each plate.

Another data set has as its system K+ ch. To be noted: b58; cited from earlier work.
Another data set concerns Sigma-2 receptors. To be noted: cited from earlier work; for Ki: Table 11E, clinical compounds, second figure of S1/S2, read-out: Sigma Affinity (S2).
The subject of data set [6] is caspase-3 in neuronal cultures. Put plainly: Caspase-3 activity in neurons. It is filed as cell-based.
Data set [7] concerns caspase-3 in SKOV-3 human ovarian cancer cells. Description: Caspase-3 activity in tumor cells. In kind it is cell-based.
Data set [8] concerns SKOV-3 human ovarian cancer cell line. Description: MTS tumor cell viability assay. It is filed as cell-based. The note with it: for IC50: Homo sapiens, SK-OV-3, tumor cell viability, 48 hrs; for Action: by EC50 relative to siramesine. As to the method: The cytotoxicity of compounds shown below was determined using the CellTiter96 Aqueous One Solution Assay (Promega, Madison, Wis.). […] The plate was read at 490 nm in a Victor3 plate reader (PerkinElmer Life and Analytical Sciences, Shelton, Conn.). The EC^50 value, defined as the concentration of the sigma ligand required to inhibit cell viability by 50% relative to untreated cells, was determined from the dose response curve for each cell line.

A short description of data set [9]: Drug-like properties of known compounds (BBB, oxidative metabolism). The note with it: (Oxidative substr.; Not BBB, Ox Sub.); first line given.
For a further data set, the target named is NMDAR2B (Homo sapiens, UniProt Q13224). To be noted: cited from earlier work.
Chain of NMDAR2B (Q13224 27-1484, species assumed, other chains not shown): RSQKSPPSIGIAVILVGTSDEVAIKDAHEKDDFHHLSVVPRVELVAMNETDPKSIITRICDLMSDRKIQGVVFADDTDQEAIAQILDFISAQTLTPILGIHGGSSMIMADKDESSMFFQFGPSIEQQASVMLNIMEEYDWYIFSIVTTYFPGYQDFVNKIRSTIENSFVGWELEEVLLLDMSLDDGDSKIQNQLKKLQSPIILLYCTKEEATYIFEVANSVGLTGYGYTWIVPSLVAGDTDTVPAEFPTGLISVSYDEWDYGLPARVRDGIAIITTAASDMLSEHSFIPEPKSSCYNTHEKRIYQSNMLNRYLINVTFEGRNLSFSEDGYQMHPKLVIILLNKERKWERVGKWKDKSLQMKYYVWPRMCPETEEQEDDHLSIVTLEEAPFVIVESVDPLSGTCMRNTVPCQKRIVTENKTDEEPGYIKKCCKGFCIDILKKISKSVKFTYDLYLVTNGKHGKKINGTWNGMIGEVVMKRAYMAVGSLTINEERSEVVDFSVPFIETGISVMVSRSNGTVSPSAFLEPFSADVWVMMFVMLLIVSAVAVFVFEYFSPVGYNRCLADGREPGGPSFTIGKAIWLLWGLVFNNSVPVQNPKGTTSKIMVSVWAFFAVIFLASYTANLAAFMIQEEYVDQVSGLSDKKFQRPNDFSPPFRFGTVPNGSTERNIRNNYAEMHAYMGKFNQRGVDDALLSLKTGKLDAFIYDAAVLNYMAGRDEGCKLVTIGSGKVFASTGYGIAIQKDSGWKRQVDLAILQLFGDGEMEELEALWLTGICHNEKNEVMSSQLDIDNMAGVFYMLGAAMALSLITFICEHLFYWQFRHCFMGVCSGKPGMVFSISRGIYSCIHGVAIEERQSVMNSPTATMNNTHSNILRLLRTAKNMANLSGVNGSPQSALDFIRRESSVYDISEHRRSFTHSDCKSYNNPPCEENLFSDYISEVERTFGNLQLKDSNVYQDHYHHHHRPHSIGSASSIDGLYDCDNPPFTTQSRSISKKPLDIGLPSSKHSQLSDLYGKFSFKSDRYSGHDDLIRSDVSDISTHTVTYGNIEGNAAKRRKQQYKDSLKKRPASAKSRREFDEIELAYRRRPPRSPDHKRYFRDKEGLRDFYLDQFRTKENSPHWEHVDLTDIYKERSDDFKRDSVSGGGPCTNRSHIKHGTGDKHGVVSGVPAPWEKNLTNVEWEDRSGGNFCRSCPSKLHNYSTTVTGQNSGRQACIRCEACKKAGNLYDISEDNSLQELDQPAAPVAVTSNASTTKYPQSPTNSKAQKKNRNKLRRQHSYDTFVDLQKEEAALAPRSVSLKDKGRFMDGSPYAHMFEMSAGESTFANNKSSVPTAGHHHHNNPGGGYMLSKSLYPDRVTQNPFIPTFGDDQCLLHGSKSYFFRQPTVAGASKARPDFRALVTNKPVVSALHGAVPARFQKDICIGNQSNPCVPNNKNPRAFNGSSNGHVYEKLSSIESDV
A further data set relates to muscarinic M1-M4. The note with it: cited from earlier work.
The next data set concerns Na + ch2. The note with it: cited from earlier work.
Where [10] appears, read: Table 11C, read-out: S2 binding Ki.
The mark [11] stands for this setting: Table 11D, read-out: Sigma-2 Receptor Ki.
The mark [12] stands for this setting: known prior art compounds, published studies, read-out: Sigma 2 Binding Ki.
[13] abbreviates: Table 11C, read-out: S1 binding Ki.
Setting [14] is: Table 11D, read-out: Sigma-1 Receptor Ki.
Where [15] appears, read: known prior art compounds, published studies, read-out: Sigma 1 Binding Ki.
Setting [16] is: Table 11D, read-out: Membrane trafficking IC50.
Setting [17] is: read-out: S2 binding Ki, Table 11C.
Where [18] appears, read: Rattus norvegicus, Hippocampal neuron, Table 11C.

Read-outs that look alike come from different tables or passages of the source.

A word on the EC50: it is the concentration needed to bring the measured effect to its halfway point. The term IC50 denotes the point on the concentration scale where inhibition reaches its midpoint. Consider `CCC(Oc1ccc(Cl)cc1)C(=O)OC1CC2CCC(C1)N2C` (stereo not drawn) [SM-21], for which, in [1] (b801), the “Abeta oligomer-induced synapse loss eliminated / recovery” value amounted to 20%. The Ki was 145 nM at sigma-2 receptor (setting [10]); 145 nM on sigma-2 receptor (setting [11]); 145 nM on sigma-2 receptor (setting [12]); 1050 nM at Sigma-1 receptors [3] (setting [13]); 1050 nM on Sigma-1 receptors [3] (setting [14]); 1050 nM on Sigma-1 receptors [3] (setting [15]). Also, in data set [2], the Selectivity other activities result is on record as “Muscarinic”. For the same compound, in the data set on Sigma-1 receptors [4], the “Sigma 1 (Type of Activity)” value is given as “(antagonist)”. In addition, in [5], the “Max Inhibition of Abeta (%)” value amounted to 65%. Also, the “Functional Neuronal Phenotype” value in data set [5] (Table 11C) and in data set [5] (Table 11D) was “Antagonist” throughout. The EC50 in [5] (Table 11C) was 2200 nM. Besides, the IC50 in [5] (setting [16]) turned out to be 2.2 µM.
`C[C@@H]([C@@H](O)c1ccc(O)cc1)N1CCC(Cc2ccccc2)CC1` [Threo-ifenprodil (TIF), Threo-ifenprodil]: the “Affinity K+ ch” value in the data set on K+ ch was 88 nM. For the same compound, the “Sigma 2 type of activity” value with Sigma-2 receptors (in brackets after the Ki) was “agonist”. Further, in data set [5], the “Effect on Abeta oligomer trafficking deficits over the concentrations tested” value (“Effect … over the concentrations tested” below) is reported as “does not cause apoptosis, affect trafficking or interfere with Abeta oligomer-induced trafficking deficits when dosed alone” and the “Max Inhibition of Abeta (%)” value turned out to be 39%. Also, in data set [5] (Table 11C), the “Functional Neuronal Phenotype” value was “Inactive” and the EC50 is greater than 20000 nM.
With `COc1ccc(C)cc1NC(=O)OC1CC2CCCC(C1)N2CCCCCCN` (stereo not drawn) [SV-119], the Ki at sigma-2 receptor (setting [17]) is 8 nM. Moreover, in the data set on neuronal cultures, the “Nuclear morphology / nuclear intensity in neurons” value is listed as “caused significant abnormal nuclear morphology”. Further, the “Caspase-3 activity induced in neurons” value in data set [6] is recorded as “caspase-3 activation”. In data set [7], the “Caspase-3 activity induced in tumor cells” value was “caspase-3 activation”. Besides, the Ki at Sigma-1 receptors [3] (setting [13]) was 1400 nM. Further, the “Effect … over the concentrations tested” value in data set [5] is given as “blocks Abeta oligomer trafficking deficits at low concentrations, but causes cellular toxicity at high concentrations”. Moreover, in data set [5] (setting [18]), the concentration for a half-maximal effect (EC50) was found to be 2600 nM. Further, the “Functional Neuronal Phenotype” value in data set [5] (Table 11C) is recorded as “Agonist”. Moreover, in data set [8], the 50% inhibitory concentration (IC50) amounted to 21700 ± 2900 nM and the Action result is “Full agonist”.
For the compound `COc1cc2c(cc1OC)CN(CCCCNC(=O)c1cc(C)ccc1OC)CC2` [RHM-1, N-[4-(3,4-dihydro-6,7-dimethoxyisoquinolin-2(1H)-yl)butyl]-2-methoxy-5-methylbenzamide], the “Nuclear morphology / nuclear intensity in neurons” value in the data set with neuronal cultures is on record as “did not decrease nuclear intensity”. Further, the “Caspase-3 activity induced in neurons” value in data set [6] is “did not induce caspase-3 activity”. In data set [7], the “Block of SV-119-induced caspase-3 activation in tumor cells” value is reported as “do not block caspase-3 activation” and the “Caspase-3 activity induced in tumor cells” value was “did not induce caspase-3 activity”. For the same compound, the “Effect … over the concentrations tested” value in data set [5] is “blocks oligomer-induced trafficking deficits at all concentrations tested”. Besides, the Action entry in data set [8] was “Antagonist”.
With `CN(C)CCN(C)CCc1ccc(Cl)c(Cl)c1` [BD1047], the Ki was 47 nM at sigma-2 receptor (setting [10]); 47 nM on sigma-2 receptor (setting [11]); 47 nM on sigma-2 receptor (setting [12]); 0.9 nM on Sigma-1 receptors [3] (setting [13]); 0.9 nM at Sigma-1 receptors [3] (setting [14]); 0.9 nM at Sigma-1 receptors [3] (setting [15]). For the same compound, the Selectivity other activities result in data set [2] is reported as “D2, β3-AR”. Besides, the “Sigma 1 (Type of Activity)” value in the data set on Sigma-1 receptors [4] was “(antagonist)”. Moreover, the “Max Inhibition of Abeta (%)” value in data set [5] turned out to be 100%. Besides, the “Functional Neuronal Phenotype” value in data set [5] (Table 11C) and in data set [5] (Table 11D) was “Antagonist” each time. Further, the EC50 in [5] (Table 11C) was 2400 nM. The concentration for half-maximal inhibition (IC50) in [5] (setting [16]) is 2.4 µM.
`CC(C)=CCN1CCC2(C)c3cc(O)ccc3CC1C2C` (single isomer, unassigned; (+)) [(+) Pentazocine, (+)-pentazocine]: at sigma-2 receptor (read-out: Sigma-2 Receptor Ki, Table 11D), the Ki was greater than 5000 nM. Also, in data set [5] (Rattus norvegicus, Hippocampal neuron, read-out: Membrane trafficking IC50 (uM)), the IC50 amounted to 7.6 µM. Further, the “Functional Neuronal Phenotype” value in [5] (Table 11D) is recorded as “Antagonist”. In data set [9], the Drug-like properties result is listed as “Yes”.
For the compound `COc1ccc(C)cc1NC(=O)OC1CC2CCCC(C1)N2Cc1ccc(N(C)C)cc1` (stereo not drawn) [WC-26], on sigma-2 receptor (setting [17]), the Ki was 3 nM. Also, in the data set on neuronal cultures, the “Nuclear morphology / nuclear intensity in neurons” value is recorded as “caused significant abnormal nuclear morphology”. Besides, the Ki on Sigma-1 receptors [3] (setting [13]) was 1400 nM. Further, the EC50 in data set [5] (setting [18]) was found to be 1600 nM. Also, the “Functional Neuronal Phenotype” value in [5] (Table 11C) is given as “Agonist”. For the same compound, in data set [8], the IC50 stood at 65600 ± 6300 nM and the Action result is on record as “Partial agonist”.
With `CN(C)CC1CCOC1(c1ccccc1)c1ccccc1` (stereo not drawn) [Anavex 2-73], the “Other Targets: NMDAR2B” value at NMDAR2B was “NMDAR2B (8 uM”. For the same compound, in the data set on muscarinic M1-M4, the “Other Targets: muscarinic M1-M4” value is given as “(3-5 uM),”. Moreover, the “Other Targets: Na + ch2” value in the data set with Na + ch2 is reported as “(5 uM)”. Also, the figures for the Ki on Sigma-1 receptors [4] and at Sigma-2 receptors were 860 nM and greater than 20000 nM, respectively.
As to `O=C(CCCN1CCC(O)(c2ccc(Cl)cc2)CC1)c1ccc(F)cc1` [Haloperidol, haloperidol], in data set [1], the “Effect on Abeta oligomer-induced synapse loss” value is “completely eliminated synapse loss”. The “Sigma 1 (Type of Activity)” value in the data set on Sigma-1 receptors [4] is given as “(antagonist)”. Further, the “Max Inhibition of Abeta (%)” value in data set [5] is 100%. Moreover, the “Functional Neuronal Phenotype” value in data set [5] (Table 11C) and in data set [5] (Table 11D) was “Antagonist” throughout. Also, in data set [9], the Drug-like properties result is “Yes”.
With `CN(C)CC1COC(c2ccccc2)(c2ccccc2)C1` (stereo not drawn) [Anavex 1-41], the “Other Targets: muscarinic M1-M4” value with muscarinic M1-M4 was “(18-114 nM), Na +”. Moreover, in the data set with Na + ch2, the “Other Targets: Na + ch2” value was “ch2 (>10 uM)”. Also, the figures for the Ki on Sigma-1 receptors [4] and on Sigma-2 receptors were 7 nM and greater than 10000 nM, respectively.

The values are drawn from patent US20140378460A1, “COMPOSITIONS AND METHODS FOR TREATING NEURODEGENERATIVE DISEASE” (COGNITION THERAPEUTICS, INC., priority 2011, published 2014).
